Laboratory results: patent US4568490A, “Aminopropylaminobleomycin derivatives and process for preparation thereof” (Zaidan Hojin Biseibutsu Kagaku Kenkyu Kai, priority 1981, dated 1986)

Experiments:
[1] = test system: Lymphocytic leukemia P-388; experiment: In vivo antitumor activity, murine lymphocytic leukemia P-388; settings: BDF1-SLC mice, i.p. transplant, once daily for 9 days, 30 days observation; T/C more than 130 effective
Protocol: The following data with respect to the testing of a group of the presently claimed substances in vivo according to a standard test method involving murine lymphocytic leukemia P-388 is presented to lend further assurance as to the utility of the compounds as inhibitors of mammalian tumors.
Lymphocytic leukemia P-388 cells (1×10^5 /0.2 ml) were transplanted intraperitoneally into male BDF1 -SLC mice (5 mice/group). Each of the compounds of this invention was diluted with physiological saline to various concentrations. Each dilution was administered at a dose of 0.1 ml/10 g of body weight once daily for 9 days, starting on the day after the day of the transplantation. The mice of the control group were administered physiological saline.
The average number of days that the group receiving the compound of this invention survived was calculated. The figure obtained was divided by the average number of survival days for the control group, and was multiplied by 100 (T/C (%)).
T/C value more than 130 was considered to be effective.

Hela S3 cells = experiment: Growth inhibitory activity against Hela S3 cells; assay type: cell-based; settings: Cu-free form; Hela S3, 3 days incubation with compound
Protocol: The percentage growth inhibition was calculated using the equation: […] wherein A is the ultimate number of cells on the third day from the addition of a test sample, B is the ultimate number of cells in the control (without the addition of test sample), and C is the number of cells on the day of addition of the test sample.

ICR mice = experiment: Pulmonary toxicity (pulmonary fibrosis) in mice, intratracheal instillation; assay type: in vivo; settings: 16 μg/50 μl/mouse intratracheally, sacrificed 4 weeks after instillation; for Grade: total score of pulmonary fibrosis/total number of samples: score 0-6 points
Bacillus subtilis = experiment: Antimicrobial activity, agar plate-cylinder method; assay type: cell-based; settings: Cu-free form; bleomycin A2 (Cu-free form) standard assumed 1,000 mcg/mg
Protocol: (1) Antimicrobial activity against Mycobacterium smegmatis ATCC 697 and Bacillus subtilis.
(§1) The activity was assayed against the above test microorganisms by the method of agar plate-cylinder, assuming the potency of bleomycin A2 (Cu-free form), used as standard, to be 1,000 mcg/mg.

[2] = test system: Mycobacterium smegmatis ATCC 607; experiment: Antimicrobial activity, agar plate-cylinder method; assay type: cell-based; settings: Cu-free form; bleomycin A2 (Cu-free form) standard assumed 1,000 mcg/mg
Protocol: as §1

ICR strain mice = experiment: Pulmonary toxicity (pulmonary fibrosis) in mice, intraperitoneal injection; assay type: in vivo; settings: 5 mg/kg i.p. once a day for 10 days; for Grade of pulmonary fibrosis, % / Incidence of pulmonary fibrosis, % / Incidence: number of mice suffering from pulmonary fibrosis / Grade: total score of pulmonary fibrosis/total number of test animal: autopsy after 5 weeks; for Incidence: number of mice suffering from pulmonary fibrosis: affected/total mice; for Grade: total score of pulmonary fibrosis/total number of test animal: score 0-6 points; for Grade of pulmonary fibrosis, Ratio / Incidence of pulmonary fibrosis, Ratio: reference of the ratio not stated
In short: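 Male ICR mice, 15 weeks old, 9 per group, received 5 mg/kg intraperitoneally once daily for 10 days. They were autopsied after 5 weeks' observation for pulmonary fibrosis incidence and grade: 1, alveolar exudate/septal fibrosis-like change; 2, fibrosis in several areas; 4, scattered fibrosis; 6, fibrosis over >2/3 of area.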

`Cc1c(N)nc(C(CC(N)=O)NCC(N)C(N)=O)nc1C(=O)NC(C(=O)NC(C)C(O)C(C)C(=O)NC(C(=O)NCCc1nc(-c2nc(C(=O)NCCC[N+](C)(C)CCCN(Cc3ccccc3)Cc3ccccc3)cs2)cs1)C(C)O)C(OC1OC(CO)C(O)C(O)C1OC1OC(CO)C(O)C(OC(N)=O)C1O)c1cnc[nH]1` (stereo not shown) [compound 35, 3-{N,N--Dimethyl-N--[3'-(dibenzylamino)propyl]amino}propylaminoBLM] was tested, and the “Max. T/C on Mouse Lymphocytic Leukemia P 388” value [1] was 153%, the “50% growth inhibition concentration (ID50) of Cu--free compound against cultured Hela cell” value (Hela S3 cells) was 0.87 µg/mL and the “Grade of pulmonary fibrosis, %” value (ICR mice) was 8%. The “Incidence of pulmonary fibrosis, %” value (ICR mice) was 25%, the “Incidence: number of mice with pulmonary fibrosis/number of mice” value (ICR mice) was 2/8 and the “Grade: total score of pulmonary fibrosis/total number of samples” value (ICR mice) was 2/24. The “Antimicrobial potency of Cu--free compound, against Bacillus subtilis” value (Bacillus subtilis) was 1742 mcg potency per mg, the “Antimicrobial potency of Cu--free compound, against Mycobacterium smegmatis ATCC 607” value [2] was 13784 mcg potency per mg and the “Grade of pulmonary fibrosis, %” value (ICR strain mice) was 0%. For the same compound, the “Incidence of pulmonary fibrosis, %” value (ICR strain mice) was 0%, the “Incidence: number of mice suffering from pulmonary fibrosis” value (“Incidence: number of mice suffering” for short) (ICR strain mice) was 0/9 and the “Grade: total score of pulmonary fibrosis/total number of test animal” value (ICR strain mice) was 0/27. The “Grade of pulmonary fibrosis, Ratio” value (ICR strain mice) was 0.00 and the “Incidence of pulmonary fibrosis, Ratio” value (ICR strain mice) was 0.00.
In the case of `CCCC[N+](CCCC)(CCCNC(=O)c1csc(-c2csc(CCNC(=O)C(NC(=O)C(C)C(O)C(C)NC(=O)C(NC(=O)c3nc(C(CC(N)=O)NCC(N)C(N)=O)nc(N)c3C)C(OC3OC(CO)C(O)C(O)C3OC3OC(CO)C(O)C(OC(N)=O)C3O)c3cnc[nH]3)C(C)O)n2)n1)CCCN(Cc1ccccc1)Cc1ccccc1` (stereo not shown) [compound 38, 3-{N,N--Dibutyl-N--[3'-(dibenzylamino)propyl]amino}propylaminoBLM], the “Max. T/C on Mouse Lymphocytic Leukemia P 388” value [1] is reported as 156%, the “50% growth inhibition concentration (ID50) of Cu--free compound against cultured Hela cell” value (Hela S3 cells) is reported as 2.00 µg/mL and the “Antimicrobial potency of Cu--free compound, against Bacillus subtilis” value (Bacillus subtilis) is reported as 530 mcg potency per mg. For the same compound, the “Antimicrobial potency of Cu--free compound, against Mycobacterium smegmatis ATCC 607” value [2] was 17910 mcg potency per mg, the “Grade of pulmonary fibrosis, %” value (ICR strain mice) was 0% and the “Incidence of pulmonary fibrosis, %” value (ICR strain mice) was 0%. For the same compound, the “Incidence: number of mice suffering” value (ICR strain mice) was 0/9, the “Grade: total score of pulmonary fibrosis/total number of test animal” value (ICR strain mice) was 0/27 and the “Grade of pulmonary fibrosis, Ratio” value (ICR strain mice) was 0.00. For the same compound, the “Incidence of pulmonary fibrosis, Ratio” value (ICR strain mice) was 0.00.
`Cc1c(N)nc(C(CC(N)=O)NCC(N)C(N)=O)nc1C(=O)NC(C(=O)NC(C)C(O)C(C)C(=O)NC(C(=O)NCCc1nc(-c2nc(C(=O)NCCCN3CCN(CCCNCC4CCCCCCC4)CC3)cs2)cs1)C(C)O)C(OC1OC(CO)C(O)C(O)C1OC1OC(CO)C(O)C(OC(N)=O)C1O)c1cnc[nH]1` (stereo not drawn) [compound 45, 3-[4-(3-Cyclooctylmethylaminopropyl)piperazin-l-yl]propylaminoBLM] was tested, and the “Max. T/C on Mouse Lymphocytic Leukemia P 388” value [1] was 163%, the “50% growth inhibition concentration (ID50) of Cu--free compound against cultured Hela cell” value (Hela S3 cells) was 0.81 µg/mL and the “Antimicrobial potency of Cu--free compound, against Bacillus subtilis” value (Bacillus subtilis) was 15100 mcg potency per mg. For the same compound, the “Antimicrobial potency of Cu--free compound, against Mycobacterium smegmatis ATCC 607” value [2] was 43000 mcg potency per mg, the “Grade of pulmonary fibrosis, %” value (ICR strain mice) was 0% and the “Incidence of pulmonary fibrosis, %” value (ICR strain mice) was 0%. For the same compound, the “Incidence: number of mice suffering” value (ICR strain mice) was 0/9, the “Grade: total score of pulmonary fibrosis/total number of test animal” value (ICR strain mice) was 0/27 and the “Grade of pulmonary fibrosis, Ratio” value (ICR strain mice) was 0.00. For the same compound, the “Incidence of pulmonary fibrosis, Ratio” value (ICR strain mice) was 0.00.
`Cc1c(N)nc(C(CC(N)=O)NCC(N)C(N)=O)nc1C(=O)NC(C(=O)NC(C)C(O)C(C)C(=O)NC(C(=O)NCCc1nc(-c2nc(C(=O)NCCCN(C)CCCNCc3ccc(OCc4ccccc4)c(OCc4ccccc4)c3)cs2)cs1)C(C)O)C(OC1OC(CO)C(O)C(O)C1OC1OC(CO)C(O)C(OC(N)=O)C1O)c1cnc[nH]1` (stereo not shown) [compound 15] was tested, and the “Max. T/C on Mouse Lymphocytic Leukemia P 388” value [1] was 165%, the “50% growth inhibition concentration (ID50) of Cu--free compound against cultured Hela cell” value (Hela S3 cells) was 0.36 µg/mL and the “Grade of pulmonary fibrosis, %” value (ICR mice) was 4%. The “Incidence of pulmonary fibrosis, %” value (ICR mice) was 13%, the “Incidence: number of mice with pulmonary fibrosis/number of mice” value (ICR mice) was 1/8 and the “Grade: total score of pulmonary fibrosis/total number of samples” value (ICR mice) was 1/24. The “Antimicrobial potency of Cu--free compound, against Bacillus subtilis” value (Bacillus subtilis) was 1772 mcg potency per mg, the “Antimicrobial potency of Cu--free compound, against Mycobacterium smegmatis ATCC 607” value [2] was 4516 mcg potency per mg and the “Grade of pulmonary fibrosis, %” value (ICR strain mice) was 4%. The “Incidence of pulmonary fibrosis, %” value (ICR strain mice) was 11%, the “Incidence: number of mice suffering” value (ICR strain mice) was 1/9 and the “Grade: total score of pulmonary fibrosis/total number of test animal” value (ICR strain mice) was 1/27. The “Grade of pulmonary fibrosis, Ratio” value (ICR strain mice) was 0.05 and the “Incidence of pulmonary fibrosis, Ratio” value (ICR strain mice) was 0.18.
In the case of `Cc1c(N)nc(C(CC(N)=O)NCC(N)C(N)=O)nc1C(=O)NC(C(=O)NC(C)C(O)C(C)C(=O)NC(C(=O)NCCc1nc(-c2nc(C(=O)NCCCN(C)CCCN(Cc3ccccc3)Cc3ccccc3)cs2)cs1)C(C)O)C(OC1OC(CO)C(O)C(O)C1OC1OC(CO)C(O)C(OC(N)=O)C1O)c1cnc[nH]1` (stereo not shown) [compound 27, 3-{N--Methyl-N--[3'-(dibenzylamino)propyl]amino}propylaminoBLM], the “Max. T/C on Mouse Lymphocytic Leukemia P 388” value [1] is reported as 149%, the “50% growth inhibition concentration (ID50) of Cu--free compound against cultured Hela cell” value (Hela S3 cells) is reported as 0.89 µg/mL and the “Grade of pulmonary fibrosis, %” value (ICR mice) is reported as 7%. For the same compound, the “Incidence of pulmonary fibrosis, %” value (ICR mice) was 22%, the “Incidence: number of mice with pulmonary fibrosis/number of mice” value (ICR mice) was 2/9 and the “Grade: total score of pulmonary fibrosis/total number of samples” value (ICR mice) was 2/27. For the same compound, the “Antimicrobial potency of Cu--free compound, against Bacillus subtilis” value (Bacillus subtilis) was 1138 mcg potency per mg, the “Antimicrobial potency of Cu--free compound, against Mycobacterium smegmatis ATCC 607” value [2] was 14194 mcg potency per mg and the “Grade of pulmonary fibrosis, %” value (ICR strain mice) was 7%. For the same compound, the “Incidence of pulmonary fibrosis, %” value (ICR strain mice) was 20%, the “Incidence: number of mice suffering” value (ICR strain mice) was 1/5 and the “Grade: total score of pulmonary fibrosis/total number of test animal” value (ICR strain mice) was 1/15. The “Grade of pulmonary fibrosis, Ratio” value (ICR strain mice) was 0.08 and the “Incidence of pulmonary fibrosis, Ratio” value (ICR strain mice) was 0.32.
For `Cc1c(N)nc(C(CC(N)=O)NCC(N)C(N)=O)nc1C(=O)NC(C(=O)NC(C)C(O)C(C)C(=O)NC(C(=O)NCCc1nc(-c2nc(C(=O)NCCCN(C)CCCNCC3CCCCCCC3)cs2)cs1)C(C)O)C(OC1OC(CO)C(O)C(O)C1OC1OC(CO)C(O)C(OC(N)=O)C1O)c1cnc[nH]1.Cl.Cl.Cl` (stereo not shown) [Compound No. 22], the “Max. T/C on Mouse Lymphocytic Leukemia P 388” value [1] was 174%, the “50% growth inhibition concentration (ID50) of Cu--free compound against cultured Hela cell” value (Hela S3 cells) was 0.45 µg/mL and the “Antimicrobial potency of Cu--free compound, against Bacillus subtilis” value (Bacillus subtilis) was 12300 mcg potency per mg. For the same compound, the “Antimicrobial potency of Cu--free compound, against Mycobacterium smegmatis ATCC 607” value [2] was 22860 mcg potency per mg, the “Grade of pulmonary fibrosis, %” value (ICR strain mice) was 0% and the “Incidence of pulmonary fibrosis, %” value (ICR strain mice) was 0%. For the same compound, the “Incidence: number of mice suffering” value (ICR strain mice) was 0/9, the “Grade: total score of pulmonary fibrosis/total number of test animal” value (ICR strain mice) was 0/27 and the “Grade of pulmonary fibrosis, Ratio” value (ICR strain mice) was 0.000. The “Incidence of pulmonary fibrosis, Ratio” value (ICR strain mice) was 0.00.
In the case of `CC[N+](CC)(CCCNCCc1ccc(Cl)cc1)CCCNC(=O)c1csc(-c2csc(CCNC(=O)C(NC(=O)C(C)C(O)C(C)NC(=O)C(NC(=O)c3nc(C(CC(N)=O)NCC(N)C(N)=O)nc(N)c3C)C(OC3OC(CO)C(O)C(O)C3OC3OC(CO)C(O)C(OC(N)=O)C3O)c3cnc[nH]3)C(C)O)n2)n1` (stereo not shown) [compound 46, 3-{N,N--Diethyl-N--[3'-(2"-p-chlorophenylethylamino)propyl]amino}propylaminoBLM], the “Max. T/C on Mouse Lymphocytic Leukemia P 388” value [1] is reported as 150%, the “50% growth inhibition concentration (ID50) of Cu--free compound against cultured Hela cell” value (Hela S3 cells) is reported as 0.52 µg/mL and the “Antimicrobial potency of Cu--free compound, against Bacillus subtilis” value (Bacillus subtilis) is reported as 13310 mcg potency per mg. The “Antimicrobial potency of Cu--free compound, against Mycobacterium smegmatis ATCC 607” value [2] was 17480 mcg potency per mg, the “Grade of pulmonary fibrosis, %” value (ICR strain mice) was 0% and the “Incidence of pulmonary fibrosis, %” value (ICR strain mice) was 0%. The “Incidence: number of mice suffering” value (ICR strain mice) was 0/9, the “Grade: total score of pulmonary fibrosis/total number of test animal” value (ICR strain mice) was 0/27 and the “Grade of pulmonary fibrosis, Ratio” value (ICR strain mice) was 0.00. For the same compound, the “Incidence of pulmonary fibrosis, Ratio” value (ICR strain mice) was 0.00.
